Data on 13 compounds can be found in patent publication US20260022142A1, “MACROCYCLIC IMMUNOMODULATORS” (Bristol-Myers Squibb Company, priority 2022, published 2026).

Bridge positions count the residues as written; N and C are the ends. Square brackets hold non-standard residues; d marks the D form. Peptide text beside a SMILES is read from it. * marks the point of attachment. Bip = N[C@@H](Cc1ccc(-c2ccccc2)cc1)C(=O)O; Phe(3-Me) = Cc1cccc(C[C@H](N)C(=O)O)c1; Cha = N[C@@H](CC1CCCCC1)C(=O)O; Carboxymethyl = O=C(O)C*; Orn = NCCC[C@H](N)C(=O)O; Aun = NCCCCCCCCCCC(=O)O; Dab = NCC[C@H](N)C(=O)O; Dap = NC[C@H](N)C(=O)O; AEEA = NCCOCCOCC(=O)O

In this assay the target is T1, PD-1/PD-L1 interaction (PE-labeled human PD-L1-Ig binding to Jurkat cell line over-expressing human PD-1) (Homo sapiens, UniProt Q15116).
T1 construct: expressed in transfected cells; host or cells: Jurkat
T1 sequence (Q15116 25-288): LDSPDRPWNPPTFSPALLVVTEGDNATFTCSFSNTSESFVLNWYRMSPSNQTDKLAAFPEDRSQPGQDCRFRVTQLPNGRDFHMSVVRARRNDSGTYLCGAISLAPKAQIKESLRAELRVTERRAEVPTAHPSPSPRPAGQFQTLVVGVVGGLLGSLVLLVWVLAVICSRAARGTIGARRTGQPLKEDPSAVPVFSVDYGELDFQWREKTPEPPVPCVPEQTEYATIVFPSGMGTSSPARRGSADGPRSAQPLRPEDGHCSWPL
The experiment in a line: Jurkat-PD-1 Cell Binding High-Content Screening Assay (CBA). As to conditions: Jurkat cell line over-expressing human PD-1; PE-labeled PD-L1-Ig 20 nM final; read-out: Jurkat hPD1-PDL1 IC50. The assay is classed as cell-based. In outline:
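Binding of fluorescent PD-L1-Ig (20 nM final) to Jurkat-PD-1 cells was measured by automated imaging after 1 h, following a 2 h compound pre-treatment at 37° C.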
A word on the IC50: it is the point on the concentration scale where inhibition reaches its midpoint. Take `CC(C)C[C@H]1NC(=O)[C@H](CCCN)NC(=O)[C@H](C(C)C)NC(=O)[C@H](Cc2ccc(-c3ccccc3)cc2)NC(=O)[C@H](C(C)C)NC(=O)[C@H](Cc2c[nH]c3ccccc23)NC(=O)[C@H](CC(=O)O)NC(=O)[C@H](Cc2ccc(OCC(=O)O)cc2)NC(=O)[C@H](CN)NC(=O)CSC[C@@H](C(=O)NCCOCCOCC(=O)N[C@@H](CCN)C(=O)NCCCCCCCCCCC(=O)O)NC(=O)[C@H]([C@@H](C)O)NC(=O)[C@H](C(C)C)NC(=O)[C@H](CC2CCCCC2)NC(=O)[C@H](Cc2cnc[nH]2)NC1=O` [Compound 1096] ({CH2CO}-[Dap]Y(Carboxymethyl)DWV[Bip]V[Orn][dL]H[Cha]VTC[AEEA][Dab][Aun]-OH; thioether N-14): the half-maximal inhibitory concentration (IC50) is 15.7 nM.
For `CC(C)C[C@H]1NC(=O)[C@H](CCCN)NC(=O)[C@H](C(C)C)NC(=O)[C@H](Cc2ccc(-c3ccccc3)cc2)NC(=O)[C@H](C(C)C)NC(=O)[C@H](Cc2c[nH]c3ccccc23)NC(=O)[C@H](CC(=O)O)NC(=O)[C@H](Cc2ccc(OCC(=O)O)cc2)NC(=O)[C@H](CN)NC(=O)CSC[C@@H](C(=O)NCCOCCOCC(=O)N[C@@H](CCCN)C(=O)NCCCCCCCCCCC(=O)O)NC(=O)[C@H]([C@@H](C)O)NC(=O)[C@H](C(C)C)NC(=O)[C@H](CC2CCCCC2)NC(=O)[C@H](Cc2cnc[nH]2)NC1=O` [Compound 1097] ({CH2CO}-[Dap]Y(Carboxymethyl)DWV[Bip]V[Orn][dL]H[Cha]VTC[AEEA][Orn][Aun]-OH; thioether N-14), the IC50 came to 14.9 nM.
`CC(C)C[C@H]1NC(=O)[C@H](CCCN)NC(=O)[C@H](C(C)C)NC(=O)[C@H](Cc2ccc(-c3ccccc3)cc2)NC(=O)[C@H](C(C)C)NC(=O)[C@H](Cc2c[nH]c3ccccc23)NC(=O)[C@H](CC(=O)O)NC(=O)[C@H](Cc2ccc(OCC(=O)O)cc2)NC(=O)[C@H](CN)NC(=O)CSC[C@@H](C(=O)NCCOCCOCC(=O)N[C@@H](CCC(=O)O)C(=O)NCCCCCCCCCCC(=O)O)NC(=O)[C@H]([C@@H](C)O)NC(=O)[C@H](C(C)C)NC(=O)[C@H](CC2CCCCC2)NC(=O)[C@H](Cc2cnc[nH]2)NC1=O` [Compound 1099] ({CH2CO}-[Dap]Y(Carboxymethyl)DWV[Bip]V[Orn][dL]H[Cha]VTC[AEEA]E[Aun]-OH; thioether N-14): the IC50 was 13.8 nM.
The value for `CC(C)C[C@H]1NC(=O)[C@H](CCCN)NC(=O)[C@H](C(C)C)NC(=O)[C@H](Cc2ccc(-c3ccccc3)cc2)NC(=O)[C@H](C(C)C)NC(=O)[C@H](Cc2c[nH]c3ccccc23)NC(=O)[C@H](CC(=O)O)NC(=O)[C@H](Cc2ccc(OCC(=O)O)cc2)NC(=O)[C@H](CN)NC(=O)CSC[C@@H](C(=O)NCCOCCOCC(=O)NCCCCCCCCCCC(=O)O)NC(=O)[C@H]([C@@H](C)O)NC(=O)[C@H](C(C)C)NC(=O)[C@H](CC2CCCCC2)NC(=O)[C@H](Cc2cnc[nH]2)NC1=O` [Compound 1100] ({CH2CO}-[Dap]Y(Carboxymethyl)DWV[Bip]V[Orn][dL]H[Cha]VTC[AEEA][Aun]-OH; thioether N-14) was 8.8 nM; that for `Cc1cccc(C[C@@H]2NC(=O)[C@H](CC(=O)O)NC(=O)[C@H](Cc3ccc(OCC(=O)O)cc3)NC(=O)[C@H](CN)NC(=O)CSC[C@@H](C(=O)N[C@@H](CCN)C(=O)NCCCCCCCCCCC(=O)O)NC(=O)[C@H]([C@@H](C)O)NC(=O)[C@H](C(C)C)NC(=O)[C@H](CC3CCCCC3)NC(=O)[C@H](Cc3cnc[nH]3)NC(=O)[C@@H](CC(C)C)NC(=O)[C@H](CCCN)NC(=O)[C@H](C(C)C)NC(=O)[C@H](Cc3ccc(-c4ccccc4)cc3)NC(=O)[C@H](C(C)C)NC2=O)c1` [Compound 1101] ({CH2CO}-[Dap]Y(Carboxymethyl)D[Phe(3-Me)]V[Bip]V[Orn][dL]H[Cha]VTC[Dab][Aun]-OH; thioether N-14) was 69.6 nM.
For `Cc1cccc(C[C@@H]2NC(=O)[C@H](CC(=O)O)NC(=O)[C@H](Cc3ccc(OCC(=O)O)cc3)NC(=O)[C@H](CN)NC(=O)CSC[C@@H](C(=O)N[C@@H](C)C(=O)N[C@@H](CCC(=O)O)C(=O)NCCCCCCCCCCC(=O)O)NC(=O)[C@H]([C@@H](C)O)NC(=O)[C@H](C(C)C)NC(=O)[C@H](CC3CCCCC3)NC(=O)[C@H](Cc3cnc[nH]3)NC(=O)[C@@H](CC(C)C)NC(=O)[C@H](CCCN)NC(=O)[C@H](C(C)C)NC(=O)[C@H](Cc3ccc(-c4ccccc4)cc3)NC(=O)[C@H](C(C)C)NC2=O)c1` [Compound 1103] ({CH2CO}-[Dap]Y(Carboxymethyl)D[Phe(3-Me)]V[Bip]V[Orn][dL]H[Cha]VTCAE[Aun]-OH; thioether N-14), the 50% inhibitory concentration (IC50) was found to be 29.1 nM.
In the case of `CC(C)C[C@H]1NC(=O)[C@H](CCCN)NC(=O)[C@H](C(C)C)NC(=O)[C@H](Cc2ccc(-c3ccccc3)cc2)NC(=O)[C@H](C(C)C)NC(=O)[C@H](Cc2c[nH]c3ccccc23)NC(=O)[C@H](CC(=O)O)NC(=O)[C@H](Cc2ccc(OCC(=O)O)cc2)NC(=O)[C@H](CN)NC(=O)CSC[C@@H](C(=O)NCCOCCOCC(=O)N[C@@H](CC(=O)O)C(=O)NCCCCCCCCCCC(=O)O)NC(=O)[C@H]([C@@H](C)O)NC(=O)[C@H](C(C)C)NC(=O)[C@H](CC2CCCCC2)NC(=O)[C@H](Cc2cnc[nH]2)NC1=O` [Compound 1105] ({CH2CO}-[Dap]Y(Carboxymethyl)DWV[Bip]V[Orn][dL]H[Cha]VTC[AEEA]D[Aun]-OH; thioether N-14), the concentration for half-maximal inhibition (IC50) is 23 nM.
Under `Cc1cccc(C[C@@H]2NC(=O)[C@H](CC(=O)O)NC(=O)[C@H](Cc3ccc(OCC(=O)O)cc3)NC(=O)[C@H](CN)NC(=O)CSC[C@@H](C(=O)N[C@@H](CCC(=O)O)C(=O)NCC(=O)NCCCCCCCCCCC(=O)O)NC(=O)[C@H]([C@@H](C)O)NC(=O)[C@H](C(C)C)NC(=O)[C@H](CC3CCCCC3)NC(=O)[C@H](Cc3cnc[nH]3)NC(=O)[C@@H](CC(C)C)NC(=O)[C@H](CCCN)NC(=O)[C@H](C(C)C)NC(=O)[C@H](Cc3ccc(-c4ccccc4)cc3)NC(=O)[C@H](C(C)C)NC2=O)c1` [Compound 1106] ({CH2CO}-[Dap]Y(Carboxymethyl)D[Phe(3-Me)]V[Bip]V[Orn][dL]H[Cha]VTCEG[Aun]-OH; thioether N-14) stands 26.5 nM; under `Cc1cccc(C[C@@H]2NC(=O)[C@H](CC(=O)O)NC(=O)[C@H](Cc3ccc(OCC(=O)O)cc3)NC(=O)[C@H](CN)NC(=O)CSC[C@@H](C(=O)N[C@@H](CC(=O)O)C(=O)NCCCCCCCCCCC(=O)O)NC(=O)[C@H]([C@@H](C)O)NC(=O)[C@H](C(C)C)NC(=O)[C@H](CC3CCCCC3)NC(=O)[C@H](Cc3cnc[nH]3)NC(=O)[C@@H](CC(C)C)NC(=O)[C@H](CCCN)NC(=O)[C@H](C(C)C)NC(=O)[C@H](Cc3ccc(-c4ccccc4)cc3)NC(=O)[C@H](C(C)C)NC2=O)c1` [Compound 1107] ({CH2CO}-[Dap]Y(Carboxymethyl)D[Phe(3-Me)]V[Bip]V[Orn][dL]H[Cha]VTCD[Aun]-OH; thioether N-14), 35.8 nM.
The value for `Cc1cccc(C[C@@H]2NC(=O)[C@H](CC(=O)O)NC(=O)[C@H](Cc3ccc(OCC(=O)O)cc3)NC(=O)[C@H](CN)NC(=O)CSC[C@@H](C(=O)N[C@@H](CCC(=O)O)C(=O)NCCCCCCCCCCC(=O)O)NC(=O)[C@H]([C@@H](C)O)NC(=O)[C@H](C(C)C)NC(=O)[C@H](CC3CCCCC3)NC(=O)[C@H](Cc3cnc[nH]3)NC(=O)[C@@H](CC(C)C)NC(=O)[C@H](CCCN)NC(=O)[C@H](C(C)C)NC(=O)[C@H](Cc3ccc(-c4ccccc4)cc3)NC(=O)[C@H](C(C)C)NC2=O)c1` [Compound 1108] ({CH2CO}-[Dap]Y(Carboxymethyl)D[Phe(3-Me)]V[Bip]V[Orn][dL]H[Cha]VTCE[Aun]-OH; thioether N-14) was 27 nM; that for `Cc1cccc(C[C@@H]2NC(=O)[C@H](CC(=O)O)NC(=O)[C@H](Cc3ccc(OCC(=O)O)cc3)NC(=O)[C@H](CN)NC(=O)CSC[C@@H](C(=O)N[C@@H](CCCN)C(=O)NCCCCCCCCCCC(=O)O)NC(=O)[C@H]([C@@H](C)O)NC(=O)[C@H](C(C)C)NC(=O)[C@H](CC3CCCCC3)NC(=O)[C@H](Cc3cnc[nH]3)NC(=O)[C@@H](CC(C)C)NC(=O)[C@H](CCCN)NC(=O)[C@H](C(C)C)NC(=O)[C@H](Cc3ccc(-c4ccccc4)cc3)NC(=O)[C@H](C(C)C)NC2=O)c1` [Compound 1109] ({CH2CO}-[Dap]Y(Carboxymethyl)D[Phe(3-Me)]V[Bip]V[Orn][dL]H[Cha]VTC[Orn][Aun]-OH; thioether N-14) was 37.6 nM.
Turning to `Cc1cccc(C[C@@H]2NC(=O)[C@H](CC(=O)O)NC(=O)[C@H](Cc3ccc(OCC(=O)O)cc3)NC(=O)[C@H](CN)NC(=O)CSC[C@@H](C(=O)N[C@@H](CCCCN)C(=O)NCCCCCCCCCCC(=O)O)NC(=O)[C@H]([C@@H](C)O)NC(=O)[C@H](C(C)C)NC(=O)[C@H](CC3CCCCC3)NC(=O)[C@H](Cc3cnc[nH]3)NC(=O)[C@@H](CC(C)C)NC(=O)[C@H](CCCN)NC(=O)[C@H](C(C)C)NC(=O)[C@H](Cc3ccc(-c4ccccc4)cc3)NC(=O)[C@H](C(C)C)NC2=O)c1` [Compound 1110] ({CH2CO}-[Dap]Y(Carboxymethyl)D[Phe(3-Me)]V[Bip]V[Orn][dL]H[Cha]VTCK[Aun]-OH; thioether N-14), the IC50 stood at 33 nM.
In the case of `Cc1cccc(C[C@@H]2NC(=O)[C@H](CC(=O)O)NC(=O)[C@H](Cc3ccc(OCC(=O)O)cc3)NC(=O)[C@H](CN)NC(=O)CSC[C@@H](C(=O)N[C@@H](C)C(=O)N[C@@H](CN)C(=O)NCCCCCCCCCCC(=O)O)NC(=O)[C@H]([C@@H](C)O)NC(=O)[C@H](C(C)C)NC(=O)[C@H](CC3CCCCC3)NC(=O)[C@H](Cc3cnc[nH]3)NC(=O)[C@@H](CC(C)C)NC(=O)[C@H](CCCN)NC(=O)[C@H](C(C)C)NC(=O)[C@H](Cc3ccc(-c4ccccc4)cc3)NC(=O)[C@H](C(C)C)NC2=O)c1` [Compound 1111] ({CH2CO}-[Dap]Y(Carboxymethyl)D[Phe(3-Me)]V[Bip]V[Orn][dL]H[Cha]VTCA[Dap][Aun]-OH; thioether N-14), the IC50 worked out at 64.2 nM.
